Laboratory results taken from ChEMBL document CHEMBL1681651, “A broad spectrum anticancer nucleoside with selective toxicity against human colon cells in vitro” (2011).

Tests used:
Format in all cases: functional
HOP-92 = test: Growth inhibition of human HOP92 cells assessed as cell growth at 1 uM after 48 hrs by SRB assay; details: HOP-92, 48 h, read-out: Activity
SK-MEL-2 [1] = test: Growth inhibition of human SK-MEL-2 cells assessed as cell growth at 1 uM after 48 hrs by SRB assay; details: SK-MEL-2, 48 h, read-out: Activity
UACC-62 = test: Growth inhibition of human UACC62 cells assessed as cell growth at 1 mM after 48 hrs by SRB assay; details: UACC-62, 48 h, read-out: Activity
SK-MEL-2 [2] = test: Growth inhibition of human SK-MEL-2 cells after 48 hrs by […] growth inhibition assay; details: SK-MEL-2, 48 h
SK-MEL-5 [3] = test: Growth inhibition of human SK-MEL-5 cells assessed as cell growth at 1 mM after 48 hrs by SRB assay; details: SK-MEL-5, 48 h, read-out: Activity
SNB-75 [4] = test: Growth inhibition of human SNB75 cells assessed as cell growth at 1 uM after 48 hrs by SRB assay; details: SNB-75, 48 h, read-out: Activity
LOX IMVI = test: Growth inhibition of human LOXIMVI cells assessed as cell growth at 10 uM after 48 hrs by SRB assay; details: read-out: Activity
NCI-H23 [5] = test: Growth inhibition of human NCI-H23 cells assessed as cell growth at 1 uM after 48 hrs by SRB assay; details: NCI-H23, 48 h, read-out: Activity
[6] = Growth inhibition of human […] cells assessed as cell growth at 100 uM after 48 hrs by SRB assay; details: read-out: Activity
MOLT-4 = test: Growth inhibition of human MOLT4 cells assessed as cell growth at 10 uM after 48 hrs by SRB assay; details: MOLT-4, 48 h, read-out: Activity
HCT-15 = test: Growth inhibition of human HCT15 cells assessed as cell growth at 0.1 uM after 48 hrs by SRB assay; details: HCT-15, 48 h, read-out: Activity
UACC-257 = test: Growth inhibition of human UACC257 cells assessed as cell growth at 0.1 uM after 48 hrs by SRB assay; details: UACC-257, 48 h, read-out: Activity
OVCAR-5 = test: Growth inhibition of human OVCAR5 cells assessed as cell growth at 0.1 uM after 48 hrs by SRB assay; details: OVCAR-5, 48 h, read-out: Activity
NCI-H23 [7] = test: Growth inhibition of human NCI-H23 cells after 48 hrs by […] growth inhibition assay; details: NCI-H23, 48 h
SNB-75 [8] = test: Growth inhibition of human SNB75 cells assessed as cell growth at 100 uM after 48 hrs by SRB assay; details: SNB-75, 48 h, read-out: Activity
KM12 = test: Growth inhibition of human KM12 cells assessed as cell growth at 10 uM after 48 hrs by SRB assay; details: KM12, 48 h, read-out: Activity
CAKI-1 = test: Growth inhibition of human Caki1 cells assessed as cell growth at 0.1 uM after 48 hrs by SRB assay; details: CAKI-1, 48 h, read-out: Activity
DU-145 = test: Growth inhibition of human DU145 cells assessed as cell growth at 1 uM after 48 hrs by SRB assay; details: DU-145, 48 h, read-out: Activity
SN12C = test: Growth inhibition of human SN12C cells assessed as cell growth at 10 uM after 48 hrs by SRB assay; details: read-out: Activity
SK-MEL-5 [9] = test: Growth inhibition of human SK-MEL-5 cells assessed as cell growth at 10 uM after 48 hrs by SRB assay; details: SK-MEL-5, 48 h, read-out: Activity
BT-549 = test: Growth inhibition of human BT549 cells assessed as cell growth at 1 mM after 48 hrs by SRB assay; details: BT-549, 48 h, read-out: Activity
PC-3 = test: Growth inhibition of human PC3 cells after 48 hrs by […] growth inhibition assay; details: PC-3, 48 h, read-out: LC50 (the source's name)
SF-539 = test: Growth inhibition of human SF539 cells assessed as cell growth at 100 uM after 48 hrs by SRB assay; details: SF-539, 48 h, read-out: Activity
M14 [10] = test: Growth inhibition of human M14 cells assessed as cell growth at 0.1 uM after 48 hrs by SRB assay; details: M14, 48 h, read-out: Activity
M14 [11] = test: Growth inhibition of human M14 cells assessed as cell growth at 1 uM after 48 hrs by SRB assay; details: M14, 48 h, read-out: Activity
RXF 393 [12] = test: Growth inhibition of human RXF393 cells after 48 hrs by […] growth inhibition assay; details: RXF 393, 48 h
CCRF-CEM = test: Growth inhibition of human CCRF-CEM cells assessed as cell growth at 10 uM after 48 hrs by SRB assay; details: read-out: Activity
MDA-MB-231 = test: Growth inhibition of human MDA-MB-231 cells assessed as cell growth at 1 uM after 48 hrs by SRB assay; details: MDA-MB-231, 48 h, read-out: Activity
RXF 393 [13] = test: Growth inhibition of human RXF393 cells assessed as cell growth at 10 uM after 48 hrs by SRB assay; details: RXF 393, 48 h, read-out: Activity
SK-MEL-2 [14] = test: Growth inhibition of human SK-MEL-2 cells assessed as cell growth at 10 uM after 48 hrs by SRB assay; details: SK-MEL-2, 48 h, read-out: Activity
A549 [15] = test: Growth inhibition of human A549 cells assessed as cell growth at 100 uM after 48 hrs by SRB assay; details: A549, 48 h, read-out: Activity
Malme-3M = test: Growth inhibition of human MALME-3M cells assessed as cell growth at 10 uM after 48 hrs by SRB assay; details: read-out: Activity
A549 [16] = test: Growth inhibition of human A549 cells after 48 hrs by […] growth inhibition assay; details: A549, 48 h
SK-MEL-2 [17] = test: Growth inhibition of human SK-MEL-2 cells assessed as cell growth at 100 uM after 48 hrs by SRB assay; details: SK-MEL-2, 48 h, read-out: Activity
NCI-H226 = test: Growth inhibition of human NCI-H226 cells assessed as cell growth at 10 uM after 48 hrs by SRB assay; details: NCI-H226, 48 h, read-out: Activity
[18] = read-out: LC50 (the source's name)
[19] = read-out: pLC50 (the source's name) (converted)

Q: What does the source list for `CNC(=O)NC[C@H]1O[C@@H](n2cnc3c(NC(=O)Nc4ccccc4)ncnc32)[C@H](O[Si](C)(C)C(C)(C)C)[C@@H]1CC(=O)N(C)OC`?
A: growth at 1 µM (HOP-92): 93%; growth at 1 µM (SK-MEL-2 [1]): 83%; growth at 1000 µM (UACC-62): 39%; GI50 (SK-MEL-2 [2]; read-out: GI50): 14.9 µM; CC50 (SK-MEL-2 [2]; [18]): > 100 µM; TGI (SK-MEL-2 [2]; read-out: TGI): 83.1 µM; GI50 (SK-MEL-2 [2]; read-out: pGI50 (converted)): 14.8 µM; CC50 (SK-MEL-2 [2]; [19]): > 100 µM; TGI (SK-MEL-2 [2]; read-out: pTGI (converted)): 83.2 µM; growth at 1000 µM (SK-MEL-5 [3]): 11%; growth at 1 µM (SNB-75 [4]): 95%; growth at 10 µM (LOX IMVI): 94%; growth at 1 µM (NCI-H23 [5]): 103%; growth at 100 µM [6]: -25%; growth at 10 µM (MOLT-4): 78%; growth at 0.1 µM (HCT-15): 96%; growth at 0.1 µM (UACC-257): 95%; growth at 0.1 µM (OVCAR-5): 99%; GI50 (NCI-H23 [7]; read-out: GI50): 57.2 µM; CC50 (NCI-H23 [7]; [18]): > 100 µM; TGI (NCI-H23 [7]; read-out: TGI): > 100 µM; GI50 (NCI-H23 [7]; read-out: pGI50 (converted)): 57.5 µM; CC50 (NCI-H23 [7]; [19]): > 100 µM; TGI (NCI-H23 [7]; read-out: pTGI (converted)): > 100 µM; growth at 100 µM (SNB-75 [8]): 54%; growth at 10 µM (KM12): 106%; growth at 0.1 µM (CAKI-1): 85%; growth at 1 µM (DU-145): 112%; growth at 10 µM (SN12C): 96%; growth at 10 µM (SK-MEL-5 [9]): 89%; growth at 1000 µM (BT-549): 26%; CC50 (PC-3): > 100 µM; growth at 100 µM (SF-539): 65%; growth at 0.1 µM (M14 [10]): 98%; growth at 1 µM (M14 [11]): 98%; GI50 (RXF 393 [12]; read-out: GI50): 9.74 µM; CC50 (RXF 393 [12]; [18]): > 100 µM; TGI (RXF 393 [12]; read-out: TGI): 38 µM; GI50 (RXF 393 [12]; read-out: pGI50 (converted)): 9.77 µM; CC50 (RXF 393 [12]; [19]): > 100 µM; TGI (RXF 393 [12]; read-out: pTGI (converted)): 38 µM; growth at 10 µM (CCRF-CEM): 96%; growth at 1 µM (MDA-MB-231): 104%; growth at 10 µM (RXF 393 [13]): 98%; growth at 10 µM (SK-MEL-2 [14]): 92%; growth at 100 µM (A549 [15]): 49%; growth at 10 µM (Malme-3M): 93%; GI50 (A549 [16]; read-out: GI50): 9.35 µM; CC50 (A549 [16]; [18]): > 100 µM; TGI (A549 [16]; read-out: TGI): > 100 µM; GI50 (A549 [16]; read-out: pGI50 (converted)): 9.33 µM; CC50 (A549 [16]; [19]): > 100 µM; TGI (A549 [16]; read-out: pTGI (converted)): > 100 µM; growth at 100 µM (SK-MEL-2 [17]): 62%; growth at 10 µM (NCI-H226): 99%
